Publication PMC4418665, “Cyclization of the Urokinase Receptor-Derived Ser-Arg-Ser-Arg-Tyr Peptide Generates a Potent Inhibitor of Trans-Endothelial Migration of Monocytes” (PLoS ONE, 2015)
Peptide text beside a SMILES is read from it.

Legend:
[1] = tested on: primary macrophages; experiment: Primary macrophage migration in DUNN chamber; format: cell-based, human; settings: 10 nM peptide added to 10 nM fMLF gradient, 6 hours
Method: The ability of [SRSRY] peptide to affect THP-1 cell migration was analyzed in Boyden chambers using 10 nM fMLF or 10 nM SRSRY as chemoattractants. […] Inhibitory effect of [SRSRY] is dose-dependent, it starts in the high fM range, it seems to level off in the μM range and reaches an overall 50% reduction at 10 pM (Fig 4B). […] The mechanisms by which monocytes move when subjected to a chemoattractant gradient, involve changes in cytoskeletal organization, which provide both protrusive and contractile forces necessary for cell migration. […] A total of 100 cells/sample that translocated to the area corresponding to the ring separating the inner and outer chambers were counted and their cytoskeletal organization examined with a fluorescence-inverted microscope. […] After 6 hours incubation, a total of 100 cells/sample that translocated to the area corresponding to the ring separating the inner and outer chambers were counted. […] Data are expressed as the means ± SD of three independent experiments, performed in duplicate. *Statistical significance against None with p<0.001. […] The extent of cell migration was expressed as a percentage of the net fMLF-dependent cell migration, considered as 100%. Data are expressed as the means ± SD of three independent experiments, performed in duplicate. […]

[2] = tested on: THP-1 cells; format: cell-based, human; settings: 10 nM peptide, 90 minutes, Boyden chamber
Method: The ability of [SRSRY] peptide to affect THP-1 cell migration was analyzed in Boyden chambers using 10 nM fMLF or 10 nM SRSRY as chemoattractants. […] Inhibitory effect of [SRSRY] is dose-dependent, it starts in the high fM range, it seems to level off in the μM range and reaches an overall 50% reduction at 10 pM (Fig 4B). […] The mechanisms by which monocytes move when subjected to a chemoattractant gradient, involve changes in cytoskeletal organization, which provide both protrusive and contractile forces necessary for cell migration. To gain some insights into the cellular effects exerted by peptide [SRSRY], PMA-differentiated THP-1 cells were grown adherent onto a glass slide, exposed to diluents (CTL), 10 nM fMLF gradient plus/minus 10 nM [SRSRY] or 10 nM [RSSYR] in a DUNN chamber for 6 hours as described, and then stained with rhodamine-phalloidin. A total of 100 cells/sample that translocated to the area corresponding to the ring separating the inner and outer chambers were counted and their cytoskeletal organization examined with a fluorescence-inverted microscope. […] Conversely, the addition of peptide [SRSRY] to the fMLF gradient reduced cell elongation and alignment with the appearance of F-actin linear distribution along the plasma membranes in the 60% of cell population (Fig 4C). In order to verify whether the inhibitory effect of [SRSRY] also occurs on primary monocytes and/or macrophages, human monocytes and macrophages were subjected to cell migration assays in Boyden and DUNN chambers, respectively. […] Unlike [RSSYR], 10 nM [SRSRY] reduced both fMLF- and SRSRY- directed monocyte migration by 50% and 49%, respectively. Next, primary macrophages were subjected to cell migration assay in DUNN chamber as above described. After 6 hours incubation, a total of 100 cells/sample that translocated to the area corresponding to the ring separating the inner and outer chambers were counted. Macrophage exposure to 10 nM fMLF elicited a considerable cell migration, reaching 230% of the basal cell migration (CTL), that was unchanged by 10 nM [[…]). […] These findings indicate that unlike linear SRSRY, the cyclic form of the chemotactic sequence of uPAR inhibits monocyte motility and prevents cytoskeletal re-organization occurring during migration of macrophages. {[…]] inhibits migration of monocytes and macrophages in a dose-dependent manner causing a marked inhibition of fMLF-dependent cytoskeletal re-organization. A. THP-1 cells (1x10^5 cells/well) were allowed to migrate for 90 minutes at 37°C, 5% CO2 in Boyden chambers toward 10 nM fMLF, or 10 nM SRSRY in the presence of diluents (None), 10 nM [RSSYR] or 10 nM [SRSRY]. […] Data are expressed as the means ± SD of three independent experiments, performed in duplicate. *Statistical significance against None with p<0.001. B. THP-1 and PMA-stimulated THP-1 cell migration toward 10 nM fMLF plus increasing concentrations of [SRSRY] in Boyden chambers. The extent of cell migration was expressed as a percentage of the net fMLF-dependent cell migration, considered as 100%. Data are expressed as the means ± SD of three independent experiments, performed in duplicate. C. Representative images of PMA-stimulated THP-1 cells allowed to migrate in a DUNN chamber toward diluents (CTL), or a fMLF chemotactic gradient, in the absence (None) or presence of 10 nM [SRSRY] or [RSSYR] peptides and stained with rhodamine-phalloidin. Scale bar: 10 μm. Original magnifications: 630x. D-E. Primary monocytes (1x10^5 cells/well) were allowed to migrate for 90 minutes at 37°C, 5% CO2 in Boyden chambers toward 10 nM fMLF (D), or 10 nM […]) in the presence of diluents (None), 10 nM [RSSYR] or 10 nM [SRSRY]. […] Data are expressed as the means ± SD of three independent experiments, performed in duplicate. *Statistical significance against None with p<0.001; **Statistical significance against None with p<0.0001. […]

[3] = molecular target: T1, FPR1 (Homo sapiens, UniProt P21462); experiment: Agonist-induced FPR1 internalization at 37°C, fluorescence microscopy, THP-1 cells; format: cell-based; set-up: host or cells: THP-1 human monocytic leukemia cells; settings: excess (100 nM) unlabelled peptide 30 min at 37°C, then 10 nM FITC-fMLF 30 min at 37°C
T1 sequence (P21462 1-350): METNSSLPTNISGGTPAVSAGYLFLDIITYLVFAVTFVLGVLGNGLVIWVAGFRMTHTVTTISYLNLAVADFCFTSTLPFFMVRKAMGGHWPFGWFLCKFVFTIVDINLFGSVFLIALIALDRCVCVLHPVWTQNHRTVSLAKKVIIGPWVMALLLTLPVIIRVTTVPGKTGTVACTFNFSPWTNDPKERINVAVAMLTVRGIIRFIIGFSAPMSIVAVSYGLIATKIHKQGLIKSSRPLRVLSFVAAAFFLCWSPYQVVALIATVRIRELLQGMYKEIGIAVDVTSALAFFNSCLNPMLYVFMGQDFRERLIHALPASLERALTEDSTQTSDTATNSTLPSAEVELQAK
Method: Once documented that both SRSRY and [SRSRY] peptides compete with fMLF for binding to FPR1, we investigated the effect of [SRSRY] on the motility of monocytes. Preliminarily, we assessed whether [SRSRY] is a ligand of FPR1 on monocyte cell surface. […] (Fig 3A). When binding experiments were performed at 37°C, FPR1 appeared mainly localized within the cytoplasm, adjacent but outside the nucleus of THP-1 cells.
Fig 3 The peptide [SRSRY] binds to FPR1 on THP-1 cell surface. A. THP-1 cells (1.5 x10^6 cells/sample) were pre-incubated with diluents (None), 100 nM fMLF, 100 nM SRSRY or 100 nM [SRSRY] peptides for 60 minutes at 4°C, then exposed to 10 nM N-formyl-Nle-Leu-Phe-Nle-Tyr-Lys-fluorescein (FITC-fMLF) for additional 60 minutes at 4°C. Fluorimetric measurement of cell-associated fluorescence was assed using 485 nm excitation and 535 nm emission filters. Data are expressed as a percentage of the fluorescence associated to THP-1 cells exposed to FITC-fMLF alone (None = 100%) and represent a mean ± SD from triplicates. *Statistical significance (t-test) against None with p<0.001. B. THP-1 cells incubated with diluents (None), 100 nM fMLF, 100 nM SRSRY or 100 nM [SRSRY] peptides for 30 minutes at 37°C and exposed to 10 nM FITC-fMLF for additional 30 minutes at 37°C. Scale bar: 5 μm. Original magnifications: 630x. […]

- internalization of fluorescent agonist in THP-1 cells [3]: did not exert such effect
Structure (SMILES): N=C(N)NCCC[C@@H]1NC(=O)[C@H](CCCNC(=N)N)NC(=O)[C@H](Cc2ccc(O)cc2)NC(=O)[C@H](CO)NC(=O)[C@H](CO)NC1=O [[RSSYR], [Arg-Ser-Ser-Tyr-Arg]] (cyclo(RRSSY))
- effect on fMLF-directed migration of primary macrophages [1]: unchanged
- reduction of THP-1 monocyte migration toward 10 nM SRSRY [2]: did not exert any effect
- reduction of THP-1 monocyte migration toward 10 nM fMLF [2]: did not exert any effect
